# Results as given in PMC8364686, “Safety, tolerability, pharmacokinetics and pharmacodynamics of single oral doses of BI 187004, an inhibitor of 11beta-hydroxysteroid dehydrogenase-1, in healthy male volunteers with overweight or obesity” (Clinical Diabetes and Endocrinology, 2021).
# Test: Plasma pharmacokinetics of BI 187004 after single oral doses (LC–MS/MS)
# Settings: male, human, plasma, po
# Method: This was a randomized, double-blind, placebo-controlled, single rising dose study conducted at a single center in Germany. […] Follow-up on an ambulatory basis was performed between 11 and 15 days after study drug administration. […] At the time of use the oral solution for dosing was prepared using the PFOS and a co-supplied aqueous solvent containing HP-beta-cyclodextrin 100 mg/mL. The lowest dose level solutions were prepared by further dilution of the lower concentration solution with additional solvent.
# For each accepted run, the acceptance criteria for the calibration standards and quality controls were met.
smiles,measurement,setting,value
N#Cc1ccc2c(c1)[C@H]1CCCN(C(=O)c3ccc4[nH]cnc4c3)[C@H]1C2 [BI 187004],concentration at 2.5 h,"2.5 mg, Plasma concentration gMean, 2.5 mg single oral, 2.5 h",7.33 nM
same,concentration at 3 h,"2.5 mg, Plasma concentration gMean, 2.5 mg single oral, 3 h",6.19 nM
same,concentration at 4 h,"2.5 mg, Plasma concentration gMean, 2.5 mg single oral, 4 h",5.87 nM
same,concentration at 5 h,"2.5 mg, Plasma concentration gMean, 2.5 mg single oral, 5 h",6.61 nM
same,concentration at 6 h,"2.5 mg, Plasma concentration gMean, 2.5 mg single oral, 6 h",5.38 nM
same,concentration at 10 h,"2.5 mg, Plasma concentration gMean, 2.5 mg single oral, 10 h",4.38 nM
same,concentration at 12 h,"2.5 mg, Plasma concentration gMean, 2.5 mg single oral, 12 h",4.53 nM
same,concentration at 24 h,"2.5 mg, Plasma concentration gMean, 2.5 mg single oral, 24 h",4.54 nM
same,concentration at 48 h,"2.5 mg, Plasma concentration gMean, 2.5 mg single oral, 48 h",3.93 nM
same,concentration at 8 h,"2.5 mg, Plasma concentration, individual subjects, 2.5 mg single oral, planned time 8 h",6.73 nM
same,concentration at 10 h,"2.5 mg, Plasma concentration, individual subjects, 2.5 mg single oral, planned time 10 h",5.99 nM
same,concentration at 12 h,"2.5 mg, Plasma concentration, individual subjects, 2.5 mg single oral, planned time 12 h",6.44 nM
same,concentration at 24 h,"2.5 mg, Plasma concentration, individual subjects, 2.5 mg single oral, planned time 24 h",4.19 nM
same,concentration at 36 h,"2.5 mg, Plasma concentration, individual subjects, 2.5 mg single oral, planned time 36 h",5.06 nM
same,concentration at 48 h,"2.5 mg, Plasma concentration, individual subjects, 2.5 mg single oral, planned time 48 h",3.58 nM
same,concentration at 72 h,"2.5 mg, Plasma concentration, individual subjects, 2.5 mg single oral, planned time 72 h",3.34 nM
same,concentration at 96 h,"2.5 mg, Plasma concentration, individual subjects, 2.5 mg single oral, planned time 96 h",3.04 nM
same,AUC(0-inf),5 mg,2.5 µM·h
same,AUC(0-t),5 mg,1.49 µM·h
same,Cmax,5 mg,150 nM
same,Tmax,5 mg,1 h
same,Vd/F,5 mg,281 L
same,half-life,5 mg,33.5 h
same,concentration at 24 h,"5 mg, C24 gMean (%gCV), 5 mg single oral dose",30 nM
same,concentration at 0.5 h,"5 mg, Plasma concentration Mean, 5 mg single oral",101 nM
same,concentration at 1 h,"5 mg, Plasma concentration Mean, 5 mg single oral, 1 h",147 nM
same,concentration at 1.5 h,"5 mg, Plasma concentration Mean, 5 mg single oral, 1.5 h",135 nM
same,concentration at 2 h,"5 mg, Plasma concentration Mean, 5 mg single oral, 2 h",122 nM
same,concentration at 2.5 h,"5 mg, Plasma concentration Mean, 5 mg single oral, 2.5 h",123 nM
same,concentration at 3 h,"5 mg, Plasma concentration Mean, 5 mg single oral, 3 h",114 nM
same,concentration at 4 h,"5 mg, Plasma concentration Mean, 5 mg single oral, 4 h",105 nM
same,concentration at 5 h,"5 mg, Plasma concentration Mean, 5 mg single oral, 5 h",97.4 nM
same,concentration at 6 h,"5 mg, Plasma concentration Mean, 5 mg single oral, 6 h",81.2 nM
same,concentration at 8 h,"5 mg, Plasma concentration Mean, 5 mg single oral, 8 h",72.9 nM
same,concentration at 10 h,"5 mg, Plasma concentration Mean, 5 mg single oral, 10 h",58 nM
same,concentration at 12 h,"5 mg, Plasma concentration Mean, 5 mg single oral, 12 h",49.7 nM
same,concentration at 24 h,"5 mg, Plasma concentration Mean, 5 mg single oral, 24 h",31 nM
same,concentration at 36 h,"5 mg, Plasma concentration Mean, 5 mg single oral, 36 h",14.9 nM
same,concentration at 48 h,"5 mg, Plasma concentration Mean, 5 mg single oral, 48 h",13.1 nM
same,concentration at 72 h,"5 mg, Plasma concentration Mean, 5 mg single oral, 72 h",7.42 nM
same,concentration at 96 h,"5 mg, Plasma concentration Mean, 5 mg single oral, 96 h",4.78 nM
same,concentration at 0.5 h,"5 mg, Plasma concentration Median, 5 mg single oral",128 nM
same,concentration at 1 h,"5 mg, Plasma concentration Median, 5 mg single oral, 1 h",141 nM
same,concentration at 1.5 h,"5 mg, Plasma concentration Median, 5 mg single oral, 1.5 h",140 nM
same,concentration at 2 h,"5 mg, Plasma concentration Median, 5 mg single oral, 2 h",126 nM
same,concentration at 2.5 h,"5 mg, Plasma concentration Median, 5 mg single oral, 2.5 h",121 nM
same,concentration at 3 h,"5 mg, Plasma concentration Median, 5 mg single oral, 3 h",113 nM
same,concentration at 4 h,"5 mg, Plasma concentration Median, 5 mg single oral, 4 h",98.4 nM
same,concentration at 5 h,"5 mg, Plasma concentration Median, 5 mg single oral, 5 h",98.1 nM
same,concentration at 6 h,"5 mg, Plasma concentration Median, 5 mg single oral, 6 h",78.8 nM
same,concentration at 8 h,"5 mg, Plasma concentration Median, 5 mg single oral, 8 h",71 nM
same,concentration at 10 h,"5 mg, Plasma concentration Median, 5 mg single oral, 10 h",57.1 nM
same,concentration at 12 h,"5 mg, Plasma concentration Median, 5 mg single oral, 12 h",50.3 nM
same,concentration at 24 h,"5 mg, Plasma concentration Median, 5 mg single oral, 24 h",32.2 nM
same,concentration at 36 h,"5 mg, Plasma concentration Median, 5 mg single oral, 36 h",15.5 nM
same,concentration at 48 h,"5 mg, Plasma concentration Median, 5 mg single oral, 48 h",11.2 nM
same,concentration at 72 h,"5 mg, Plasma concentration Median, 5 mg single oral, 72 h",6.1 nM
same,concentration at 96 h,"5 mg, Plasma concentration Median, 5 mg single oral, 96 h",4.24 nM
same,concentration at 0.5 h,"5 mg, Plasma concentration gMean, 5 mg single oral",63.7 nM
same,concentration at 1 h,"5 mg, Plasma concentration gMean, 5 mg single oral, 1 h",144 nM
same,concentration at 1.5 h,"5 mg, Plasma concentration gMean, 5 mg single oral, 1.5 h",134 nM
same,concentration at 2 h,"5 mg, Plasma concentration gMean, 5 mg single oral, 2 h",121 nM
same,concentration at 2.5 h,"5 mg, Plasma concentration gMean, 5 mg single oral, 2.5 h",122 nM
same,concentration at 3 h,"5 mg, Plasma concentration gMean, 5 mg single oral, 3 h",113 nM
same,concentration at 4 h,"5 mg, Plasma concentration gMean, 5 mg single oral, 4 h",104 nM
same,concentration at 5 h,"5 mg, Plasma concentration gMean, 5 mg single oral, 5 h",96 nM
same,concentration at 6 h,"5 mg, Plasma concentration gMean, 5 mg single oral, 6 h",79.9 nM
same,concentration at 8 h,"5 mg, Plasma concentration gMean, 5 mg single oral, 8 h",71.8 nM
same,concentration at 10 h,"5 mg, Plasma concentration gMean, 5 mg single oral, 10 h",56.8 nM
same,concentration at 12 h,"5 mg, Plasma concentration gMean, 5 mg single oral, 12 h",48.5 nM
same,concentration at 24 h,"5 mg, Plasma concentration gMean, 5 mg single oral, 24 h",30 nM
same,concentration at 36 h,"5 mg, Plasma concentration gMean, 5 mg single oral, 36 h",14.2 nM
same,concentration at 48 h,"5 mg, Plasma concentration gMean, 5 mg single oral, 48 h",12.5 nM
same,concentration at 72 h,"5 mg, Plasma concentration gMean, 5 mg single oral, 72 h",7.05 nM
same,concentration at 96 h,"5 mg, Plasma concentration gMean, 5 mg single oral, 96 h",4.6 nM
same,concentration at 1 h,"5 mg, Plasma concentration, individual subjects, 5 mg single oral, planned time 1 h",112 nM
same,concentration at 1.5 h,"5 mg, Plasma concentration, individual subjects, 5 mg single oral, planned time 1.5 h",144 nM
same,concentration at 2 h,"5 mg, Plasma concentration, individual subjects, 5 mg single oral, planned time 2 h",127 nM
same,concentration at 2.5 h,"5 mg, Plasma concentration, individual subjects, 5 mg single oral, planned time 2.5 h",122 nM
same,concentration at 3 h,"5 mg, Plasma concentration, individual subjects, 5 mg single oral, planned time 3 h",118 nM
same,concentration at 4 h,"5 mg, Plasma concentration, individual subjects, 5 mg single oral, planned time 4 h",99.5 nM
same,concentration at 5 h,"5 mg, Plasma concentration, individual subjects, 5 mg single oral, planned time 5 h",96.9 nM
same,concentration at 6 h,"5 mg, Plasma concentration, individual subjects, 5 mg single oral, planned time 6 h",80.6 nM
same,concentration at 8 h,"5 mg, Plasma concentration, individual subjects, 5 mg single oral, planned time 8 h",72.1 nM
same,concentration at 24 h,"5 mg, Plasma concentration, individual subjects, 5 mg single oral, planned time 24 h",35.1 nM
same,concentration at -0.5 h,"5 mg, Plasma concentration, individual subjects, 5 mg single oral, planned time –0.5 h",90.2 nM
same,AUC(0-inf),10 mg,5.91 µM·h
same,AUC(0-t),10 mg,4.38 µM·h
same,Cmax,10 mg,502 nM
same,Tmax,10 mg,1 h
same,Vd/F,10 mg,169 L
same,half-life,10 mg,23.7 h
same,concentration at 24 h,"10 mg, C24 gMean (%gCV), 10 mg single oral dose",71.3 nM
same,concentration at 0.5 h,"10 mg, Plasma concentration Mean, 10 mg single oral",365 nM
same,concentration at 1 h,"10 mg, Plasma concentration Mean, 10 mg single oral, 1 h",429 nM
same,concentration at 1.5 h,"10 mg, Plasma concentration Mean, 10 mg single oral, 1.5 h",438 nM
same,concentration at 2 h,"10 mg, Plasma concentration Mean, 10 mg single oral, 2 h",382 nM
same,concentration at 2.5 h,"10 mg, Plasma concentration Mean, 10 mg single oral, 2.5 h",376 nM
same,concentration at 3 h,"10 mg, Plasma concentration Mean, 10 mg single oral, 3 h",339 nM
same,concentration at 4 h,"10 mg, Plasma concentration Mean, 10 mg single oral, 4 h",346 nM
same,concentration at 5 h,"10 mg, Plasma concentration Mean, 10 mg single oral, 5 h",277 nM
same,concentration at 6 h,"10 mg, Plasma concentration Mean, 10 mg single oral, 6 h",260 nM
same,concentration at 8 h,"10 mg, Plasma concentration Mean, 10 mg single oral, 8 h",213 nM
same,concentration at 10 h,"10 mg, Plasma concentration Mean, 10 mg single oral, 10 h",182 nM
same,concentration at 12 h,"10 mg, Plasma concentration Mean, 10 mg single oral, 12 h",146 nM
